# In ChEMBL document CHEMBL1157210, “Neurosteroid analogues. 12. Potent enhancement of GABA-mediated chloride currents at GABAA receptors by ent-androgens” (Eur J Med Chem, 2008):
# Key:
# [1] = Displacement of […] from GABAA receptor in rat brain; assay type: tissue-based
# [2] = test system: Xenopus laevis; assay: Anesthetic effect in Xenopus laevis assessed as loss of righting response; assay type: functional, organism-based
# [3] = test system: Xenopus laevis; assay: Anesthetic effect in Xenopus laevis assessed as loss of swimming response; assay type: functional, organism-based
# [4] = species on record: Rattus norvegicus; assay: Activity at rat GABAA alpha-1-beta-2-gamma-2L receptor expressed in Xenopus laevis assessed as ratio of current in treated to non-treated oocyte at 0.1 uM by electrophysiology
# [5] = species on record: Rattus norvegicus; assay: Activity at rat GABAA alpha-1-beta-2-gamma-2L receptor expressed in Xenopus laevis expressed in assessed as ratio of current in treated to non-treated oocyte at 1 uM by electrophysiology
# [6] = species on record: Rattus norvegicus; assay: Activity at rat GABAA alpha-1-beta-2-gamma-2L receptor expressed in Xenopus laevis expressed in assessed as ratio of current in treated to non-treated oocyte at 10 uM by electrophysiology
# [7] = species on record: Rattus norvegicus; assay: Activity at rat GABAA alpha-1-beta-2-gamma-2L receptor expressed in Xenopus laevis assessed as ratio of current in drug-treated to GABA-treated oocyte at 10 uM by electrophysiology
compound,measurement,setting,value
C[C@@]12CC[C@H](O)C[C@@H]1CC[C@@H]1[C@@H]2CC[C@]2(C)[C@H]1CC[C@]21CO1,IC50,[1],390 nM
same,EC50,[2],1730 nM
same,EC50,[3],2760 nM
same,Ratio,[4],1.86
same,Ratio,[5],10.5
same,Ratio,[6],20.8
same,Ratio,[7],0.12
C[C@]12CC[C@@H](O)C[C@@H]1CC[C@@H]1[C@@H]2CC[C@]2(C)C(=O)CC[C@@H]12 [ANDROSTERONE],IC50,[1],410 nM
same,EC50,[2],3380 nM
same,Ratio,[4],0.97
same,Ratio,[5],1.41
same,Ratio,[6],5.44
same,Ratio,[7],0.02
CC(=O)[C@@H]1CC[C@H]2[C@@H]3CC[C@H]4C[C@@H](O)CC[C@@]4(C)[C@H]3CC[C@@]12C,IC50,[1],280 nM
same,EC50,[2],70 nM
same,EC50,[3],890 nM
same,Ratio,[4],1.28
same,Ratio,[5],2.82
same,Ratio,[6],7.92
same,Ratio,[7],0.06
C[C@@]12CC[C@H](O)C[C@H]1CC[C@@H]1[C@@H]2CC[C@]2(C)[C@H]1CC[C@]21CO1,IC50,[1],470 nM
same,EC50,[2],1080 nM
same,EC50,[3],2710 nM
same,Ratio,[4],2.62
same,Ratio,[5],15.9
same,Ratio,[6],26.3
same,Ratio,[7],0.1
C[C@]12CC[C@@H](O)C[C@@H]1CC[C@@H]1[C@@H]2CC[C@@]2(C)[C@H]1CC[C@@]21CO1,IC50,[1],110 nM
same,EC50,[2],1350 nM
same,EC50,[3],2760 nM
same,Ratio,[4],3.11
same,Ratio,[5],21.9
same,Ratio,[6],33.7
same,Ratio,[7],0.22
CC(=O)[C@@H]1CC[C@H]2[C@@H]3CC[C@@H]4C[C@@H](O)CC[C@@]4(C)[C@H]3CC[C@@]12C,IC50,[1],1910 nM
same,EC50,[2],970 nM
same,EC50,[3],> 5000 nM
same,Ratio,[4],0.95
same,Ratio,[5],0.92
same,Ratio,[6],1.17
same,Ratio,[7],0.02
C[C@@]12CC[C@H](O)C[C@H]1CC[C@@H]1[C@@H]2CC[C@@]2(C)C(=O)CC[C@@H]12,IC50,[1],310 nM
same,EC50,[2],1420 nM
same,EC50,[3],5480 nM
same,Ratio,[4],1.27
same,Ratio,[5],3.66
same,Ratio,[6],18.9
same,Ratio,[7],0.03
C[C@]12CC[C@@H](O)C[C@H]1CC[C@@H]1[C@@H]2CC[C@]2(C)C(=O)CC[C@@H]12 [ETIOCHOLANOLONE],IC50,[1],4150 nM
same,Ratio,[4],0.89
same,Ratio,[5],0.87
same,Ratio,[6],1.39
same,Ratio,[7],0
CC(=O)[C@H]1CC[C@H]2[C@@H]3CC[C@H]4C[C@H](O)CC[C@]4(C)[C@H]3CC[C@]12C [BREXANOLONE],IC50,[1],74 nM
same,EC50,[2],420 nM
same,EC50,[3],5500 nM
same,Ratio,[4],1.26
same,Ratio,[5],3.89
same,Ratio,[6],9.65
same,Ratio,[7],0.37
CC(=O)[C@H]1CC[C@H]2[C@@H]3CC[C@@H]4C[C@H](O)CC[C@]4(C)[C@H]3CC[C@]12C [ELTANOLONE],IC50,[1],71 nM
same,EC50,[2],60 nM
same,EC50,[3],300 nM
same,Ratio,[4],1.2
same,Ratio,[5],2.82
same,Ratio,[6],9.77
same,Ratio,[7],0.06
C[C@@]12CC[C@H](O)C[C@@H]1CC[C@@H]1[C@@H]2CC[C@@]2(C)C(=O)CC[C@@H]12,IC50,[1],380 nM
same,EC50,[2],1970 nM
same,EC50,[3],8900 nM
same,Ratio,[4],1.4
same,Ratio,[5],2.34
same,Ratio,[6],14.1
same,Ratio,[7],0.09
C[C@]12CC[C@@H](O)C[C@H]1CC[C@@H]1[C@@H]2CC[C@@]2(C)[C@H]1CC[C@@]21CO1,IC50,[1],220 nM
same,EC50,[2],990 nM
same,EC50,[3],1730 nM
same,Ratio,[4],1.28
same,Ratio,[5],5.17
same,Ratio,[6],25.4
same,Ratio,[7],0.03
